Reference: patent US8044025B2 (Research Development Foundation, priority 2000, dated 2011)
“Also recorded” adds a separate entry of the source. No end group written: not given here.

Legend:
[1] = Nocturnal food intake after icv peptide; type: in vivo, rat; conditions: 1 μg icv, rats
Description: (§1) To identify cell groups responsive to central Ucn II administration, and to evaluate the extent to which these may conform to sites of CRF-R2 expression, the induced expression of the immediate-early gene product, Fos, in response; to icv peptide administration was monitored. Adult male Sprague-Dawley rats (250-300 g at start of experiments) and C57 BL/6 mice (25-40 g) were housed in a colony room on a 12:12 light:dark cycle, and with free access to food and water prior to experimentation. For intracerebroventricular (icv) injections, rats were anesthetized with ketamine/xylazine/acepromazine and stereotaxically implanted with a 26 ga guide cannula terminating in the lateral ventricle. For intravenous (iv) administration of peptides, animals were fitted with indwelling jugular venous catheters. […]
To monitor induced patterns of Fos expression, rats were injected at 10 am, either icv or iv with synthetic Ucn II (1, 5 or 10 μg/animal in 2 μl saline for icv injections or 200 μl for iv administration), or vehicle alone, and perfused two hours later. […] Consumption was then measured hourly for 6 hrs and at 12 hrs. Data were analyzed using repeated measures analysis of variance (ANOVA), with the Bonferoni correction for multiple comparisons applied as warranted. […]

[2] = Telemetric gross motor activity after icv peptide; type: in vivo, rat; conditions: 1 μg icv, rats, telemetry
Description: as §1, with “catheters. Rats that received icv injections were also implanted intra-abdominally with a transmitter to remotely monitor gross activity levels and body temperature (Mini-Mitter). After surgery, animals were allowed to recover for 7 days prior to any experimentation, during which time they were handled daily.” for “catheters.”
In these same subjects, gross motor activity and body temperature were monitored telemetrically (FIG. 10B). […] Core body temperature was also recorded, with each peptide provoking comparably mild (0.5-1° C.) and transient (2 hr) hypothermic responses (data not shown).

[3] = system: rat anterior pituitary cells; assay: ACTH secretion from primary rat anterior pituitary cells; type: cell-based; conditions: primary cultures of rat anterior pituitary cells
Procedure: Secreted ACTH was measured using a kit (Nichols Institute Diagnostics).
For pituitary actions, ACTH secretion response to human urocortin-related peptide was measured in primary cultures of rat anterior pituitary cells as described (30). ACTH levels were determined using the ACTH immunoassay kit from Nichols Institute Diagnostics. The rat anterior pituitary cells were treated with either rat urocortin or human urocortin-related peptide and the level of secreted ACTH was measured, using a kit (Nichols Institute Diagnostics).

[4] = Food intake after icv hURP; type: in vivo, rat; conditions: 5 μg icv
Procedure: The effect of human urocortin-related peptide on appetite was also examined in rats. Cannulas for injection of human urocortin-related peptide were surgically into the right lateral ventricle and the animals were allowed to recover for seven days. During the time, the animals were handled daily to acclimatize the animals to the injection procedure. On the day of injection, the animals were injected with either 5 μl of saline or 5 μl of 1 μg/μl human urocortin-related peptide in saline. The amount of food eaten by each animal was recorded every hour for six hours and at fourteen hours.

[5] = Gross motor activity after icv hURP; type: in vivo, rat; conditions: 5 μg icv, counts over four hours
Description: To determine if human urocortin-related peptide plays a role in the generation of stress response, the effect of human urocortin-related peptide on the gross motor activity of rats was examined. Cannulas were surgically into the right lateral ventricle while telemeters were implanted intraabdominally to allow for continuous monitoring of gross motor activity. The animals were allowed a post-surgical recovery period of seven days. During the time, the animals were handled daily to acclimatize the animals to the injection procedure. On the day of injection, baseline activity was for recorded for four hours. At 6:00 p.m., which was the onset of lights out, the animals received an injection of either 5 μl of saline or 5 μl of saline containing a total of 5 μg of human urocortin-related peptide. Activity counts were summated over a four hour time period.

CRF-R2 = biological target: T1, CRF-R2 (Mus musculus, UniProt Q60748); assay: Accumulation of intracellular cAMP in stably transfected CHO cells; type: cell-based; conditions: peptides 20 min at 37° C.
T1 construct: expressed in transfected cells; host or cells: CHO cells, stably transfected
Procedure: (§2) The values were determined from 3-6 independent experiments using stably transfected CHO cells or their membranes for each test peptide. EC50 and Ki values were determined using Prism software. Their log10 values were averaged (γ). The average EC50 or Ki was taken to be 10^γ. The standard deviation of the log10 values was calculated (σ). The ranges given were taken to be: [(10^γ)10^σ or 10^γ/10^σ].
(§3) This significant selectivity for the type 2 receptor was seen also in receptor activation as measured by accumulation of intracellular cAMP. Stably transfected CHO cells (cultured in DMEM/10% FBS) were plated into 48-well tissue culture dishes (Costar) and allowed to recover for 24 hours. The medium was changed to DMEM/0.1% FBS at least two hours before treatment. The cells were preincubated for 30 min with 0.1 mM 3-isobutyl-1-methylxanthine and then exposed to peptides for 20 min at 37° C. Intracellular cAMP was extracted and measured in duplicate from triplicate wells using a RIA kit (Biomedical Technologies). […] The extremely low affinity of Ucn II for CRF-R1 precluded a determination of its efficacy on this receptor.

CRFR1 [6] = biological target: T2, CRFR1 (Homo sapiens, UniProt P34998); assay: as above; type: cell-based; conditions: peptides 20 min at 37° C.
T2 construct: expressed in transfected cells; host or cells: CHO cells, stably transfected
T2 sequence (P34998 24-415): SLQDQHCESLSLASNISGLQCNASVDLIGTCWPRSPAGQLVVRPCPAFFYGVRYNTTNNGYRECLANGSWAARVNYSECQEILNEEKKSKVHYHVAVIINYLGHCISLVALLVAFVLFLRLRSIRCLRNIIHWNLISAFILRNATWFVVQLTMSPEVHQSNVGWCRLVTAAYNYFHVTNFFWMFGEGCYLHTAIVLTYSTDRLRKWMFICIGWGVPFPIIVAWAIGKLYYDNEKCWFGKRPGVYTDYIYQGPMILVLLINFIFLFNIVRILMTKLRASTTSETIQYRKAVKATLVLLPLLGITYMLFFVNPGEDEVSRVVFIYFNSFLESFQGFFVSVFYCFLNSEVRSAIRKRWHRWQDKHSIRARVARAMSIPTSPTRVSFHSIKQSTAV
Procedure: as §2, §3

[7] = Body temperature after icv hURP; type: in vivo, rat; conditions: 5 μg icv, monitored twelve hours
Description: The effect of human urocortin-related peptide on the body temperature of rats was examined. Cannulas for injection of human urocortin-related peptide were surgically into the right lateral ventricle. Telemeters for the continuous unobtrusive analysis of body temperature were implanted intraabdominally. The animals were allowed a post-surgical recovery period of seven days. During the time, the animals were handled daily to acclimatize the animals to the injection procedure. On the day of injection, baseline temperature was for recorded for three hours. At 6:00 p.m. (the onset of lights out) the animals were injected with either 5 μl of saline or 5 μl of 1 μg/μl human urocortin-related peptide in saline. Body temperature was monitored every five minutes for twelve hours.

Fos expression = assay: hURP-stimulated Fos expression in rat brain; type: in vivo; conditions: 5 μg icv, rats sacrificed two hours later
Procedure: Activation of central stress-related cells groups by human urocortin-related peptide was examined by detection of the Fos gene product in the cells following injection with human urocortin-related peptide. Rats were implanted with guide cannulae in a lateral cerebral ventricle seven days prior to experimentation. On the day of testing, the rats were injected with 5 μg synthetic human urocortin-related peptide in 5 μl of sterile saline. The rats were sacrificed two hours later and slides of various brain sections were prepared. The slides were stained by immunoperoxidase localization of Fos-immunoreactivity using a polyclonal serum raised in rabbit against residues 3-16 of the human Fos protein.

CRF-R2β = biological target: T3, CRF-R2β (Mus musculus, UniProt Q60748); assay: Radioreceptor assay, displacement of 125I-[Tyr0,Glu1,Nle17]-sauvagine, CHO cell membranes (Example 4); conditions: 3-6 experiments, range from SD of log10 values, read-out: CRF-R2 Avg. Ki (nM) (Binding)
T3 construct: expressed in transfected cells; host or cells: CHO cells, stably transfected
Procedure: (§4) The affinity of Ucn II to the CRF-R1 and CRF-R2 receptors was evaluated using a radioreceptor assay. Crude membrane fractions were prepared from CHO cells stably expressing either cloned CRF-R1 or CRF-R2β. Test peptides and the radioligand, ^125I-[Tyr^0, Glu^1, Nle^17]-sauvagine, were diluted in assay buffer (20 mM HEPES, 2 mM EGTA, 0.1% BSA, 10% sucrose, pH 7.6) and combined with the receptor membrane preparations in MAGV microtiter plates (Millipore) pre-coated with 0.1% polyethylene imine. The reaction mixture was incubated for 90 min at room temperature followed by rapid washing twice with assay buffer and filtration. The radioligand complex was quantified by gamma radiation counting. Inhibitory binding constants were determined using Prism software.
as §2

CRFR1 [8] = biological target: T2, CRFR1; assay: as above; conditions: 3-6 experiments, range from SD of log10 values, read-out: CRF-R1 Avg. Ki (nM) (Binding)
Procedure: as §4, §2

CRFR1 [9] = biological target: T2, CRFR1; assay: Displacement of 125I-Sauvagine binding, CHO membranes (Example 5)
Procedure: (§5) FIGS. 5A and 5B show the human urocortin-related peptide mediated displacement of ^125I-Sauvagine binding to CRFR1 and CRFR2β, respectively. The affinities of Ucn and URP peptides for CRFR1 and CRFR2β_stably expressed in CHO cells were determined by the competitive displacement of the ^125I-Sauvagine.
(§6) Membranes were prepared as described above (29). Binding was performed in 96-well 0.2 μm Durapore plates using the vacuum filtration multiscreen assay system (Millipore). […] Plates were incubated for 1 hour at room temperature, vacuum-filtered, washed twice with binding buffer, and allowed to dry. Individual filters were punched out and counted using a gamma counter.

CRFR2β = assay: as above; conditions: CRF-R2β versus CRF-R1
Procedure: as §5, §6

T3 sequence (Q60748 27-431 isoform Q60748-2 limits assumed): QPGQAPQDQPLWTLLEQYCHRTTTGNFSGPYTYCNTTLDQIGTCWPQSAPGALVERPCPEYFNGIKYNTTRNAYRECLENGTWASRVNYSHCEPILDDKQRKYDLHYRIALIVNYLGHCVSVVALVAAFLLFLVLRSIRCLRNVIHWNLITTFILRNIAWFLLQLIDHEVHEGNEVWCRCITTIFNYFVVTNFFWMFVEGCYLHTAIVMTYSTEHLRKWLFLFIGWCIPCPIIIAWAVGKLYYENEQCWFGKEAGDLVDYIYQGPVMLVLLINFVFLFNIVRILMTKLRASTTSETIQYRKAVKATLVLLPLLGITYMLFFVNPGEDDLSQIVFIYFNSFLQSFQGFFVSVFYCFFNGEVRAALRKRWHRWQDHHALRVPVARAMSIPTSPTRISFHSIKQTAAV
T1 sequence (Q60748 27-431 isoform Q60748-2 limits assumed): as above

Substance	Degree of suppression of food intake over the 12 hr interval ([1]; nocturnal phase)	Time post-injection at which food intake is significantly less than saline controls [1]	Gross motor activity versus vehicle [2]	Stimulation of ACTH secretion relative to urocortin ([3]; listed as Human urocortin-related peptide)	Stimulation of ACTH secretion relative to urocortin ([3]; listed as human urocortin-related peptide)	Total food consumed versus control ([4]; over fourteen hours)	Food consumed during each time period versus control ([4]; per time period)	Gross motor activity versus saline controls [5]	EC50 (CRF-R2)	EC50 (CRFR1 [6])	Body temperature versus saline controls [7]	Fos-immunoreactivity in central stress-related cell groups (Fos expression)	Ki (CRF-R2β)	Ki (CRFR1 [8])	Ki (CRFR1 [9]; Example 5, FIG. 5, CHO cells, read-out: Disassociation constant (Ki) for CRF-R1)	Ki (CRFR1 [9]; synthesized peptide, as stated in the Summary, read-out: Ki for CRF-R1 (summary statement))	Specificity for CRF type II receptor relative to urocortin (CRFR2β)
CRF: 41-amino acid peptide initiating pituitary-adrenal responses to stress; R1-selective agonist (SEEPPISLDLTFHLLREVLEMARAEQLAQQAHSNRKLMEII; ends and bridges not checked; UniProt P06850 154-194, looked up)	30%	4 h	significantly more active than vehicle-treated rats; also recorded: significantly elevated	–	–	–	–	–	–	–	–	–	–	–	–	–	–
IVLSLDVPIGLLQILLEQARARAAREQATTNARILARVGHC-NH2 [URP (human)]	–	–	–	significantly lower potency compared to urocortin or CRF	less sensitive to human urocortin-related peptide than to urocortin	ate significantly less food than control animals	especially ate less food during the first and third hours after injection as well as during the final eight hours of the experiment	No significant difference in gross motor activity	0.42 nM	> 100 nM	lower body temperatures both immediately and at seven hours after injection	Fos-immunoreactivity was detected	0.5 nM	> 100 nM	78 nM	70 nM	much more specific for the corticotropin releasing factor type II receptor than urocortin
